Source: patent US6858217B2, “Stabilization of terpenoids in cosmetic compositions” (Unilever Home & Personal Care USA division of Conopco, Inc., priority 2002, dated 2005)

Columns and labels:
[1] = Storage stability of limonene in skin lotion, GC/HS; settings: for initial GC/HS: skin lotion with 1.0% fragrance (limonene 20%)
Source text: (§1) The stability of terpenoid components of typical fragrances was examined in skin care formulations containing 4-substituted resorcinol derivatives to determine the resorcinol's effectiveness toward preventing degradation and loss of terpenoid upon storage. Two terpenoid components, limonene and linalool, were formulated as part of a fragrance in standard skin care lotions containing BHT (a standard antioxidant), unsubstituted resorcinol, 4-ethyl resorcinol and 4-hexyl resorcinol. The stability of these fragrance components was measured using GC/HS analysis to determine the loss of each terpenoid molecule with time as stored under typical consumer product storage conditions storage (5-month storage at 40° C. and in the sun at Room Temperature [RT]). The loss of limonene and linalool in a standard formulation containing no “anti-oxidants” was directly compared to loss of these materials with both BHT, unsubstituted resorcinol and the 4-substituted resorcinol derivatives.
(§2) With reference to the data in the Tables below, GC/HS measurements were taken on an Agilent 6890 GC/5973 MS using a Gerstel MPS2 Headspace Sampler. The samples were incubated at 35° C. for one hour and then 2.50 mL of the headspace above the sample was injected onto a Agilent Technologies number 19091S-433, HP-5MS, 5% Phenyl Methyl Siloxane column which has a 30 m×0.25 mm ID with a 0.25 μm film thickness. The GC data is recorded as peak area count for the two fragrance components.
(§3) The formulations in the Table below were prepared in accordance with the method set forth in Example 1 hereinabove.

[2] = Storage stability of linalool in skin lotion, GC/HS; settings: for initial GC/HS: skin lotion with 1.0% fragrance (linalool 20%)
Source text: as §1, §2, §3

[3] = Overall stabilization of terpenoid fragrance components in skin lotion; assay type: physicochemical; settings: limonene and linalool in skin lotions, 5-month storage (sun RT, 40° C.)
Source text: In most cases, the “control” formulation without anti-oxidants or the control with the unsubstituted resorcinol lost twice as much limonene and/or linalool as those formulations containing the 4-substituted resorcinols.

[4] = 5-month storage in the sun at RT

| 40° C. 5-months GC/HS ([1]; 5-month storage at 40° C.) | 40° C. % Loss ([1]; 5-month storage at 40° C.) | Sun 5-months GC/HS [1, 4] | Sun % Loss [1, 4] | initial GC/HS [1] | 40° C. 5-months GC/HS ([2]; 5-month storage at 40° C.) | 40° C. % Loss ([2]; 5-month storage at 40° C.) | Sun 5-months GC/HS [2, 4] | Sun % Loss [2, 4] | initial GC/HS [2] | stabilizing terpenoid molecules against degradation [3] | Structure (SMILES) | 40° C. % Stabilization ([1]; 5-month storage at 40° C.) | Sun % Stabilization [1, 4] | 40° C. % Stabilization ([2]; 5-month storage at 40° C.) | Sun % Stabilization [2, 4] |
| --- | --- | --- | --- | --- | --- | --- | --- | --- | --- | --- | --- | --- | --- | --- | --- |
| 46790409 peak area count | 12.9% | 54753996 peak area count | 0% | 54736538 peak area count | 2292953 peak area count | 30.2% | 2650924 peak area count | 19.4% | 3288967 peak area count |  | CCc1ccc(O)cc1O [4-EthylResorcinol, 4-ethyl resorcinol] |  |  |  |  |
| 3381932 peak area count | 18.5% | 34662250 peak area count | 7.7% | 40778538 peak area count | 1466948 peak area count | 10.2% | 1666185 peak area count | 7.5% | 2222930 peak area count |  | CCCCCCc1ccc(O)cc1O [4-HexylResorcinol, 4-hexyl resorcinol] |  |  |  |  |
| 19260141 peak area count | 57.6% | 25743642 peak area count | 43.4% | 45478209 peak area count | 4286137 peak area count | 29.6% | 3856563 peak area count | 36.7% | 6088780 peak area count | little to no stabilization | Oc1cccc(O)c1 [Resorcinol] |  |  |  |  |

| Structure (SMILES) | 40° C. 5-months GC/HS ([1]; 5-month storage at 40° C.) | 40° C. % Loss ([1]; 5-month storage at 40° C.) | Sun 5-months GC/HS [1, 4] | Sun % Loss [1, 4] | initial GC/HS [1] | 40° C. 5-months GC/HS ([2]; 5-month storage at 40° C.) | 40° C. % Loss ([2]; 5-month storage at 40° C.) | Sun 5-months GC/HS [2, 4] | Sun % Loss [2, 4] | initial GC/HS [2] | stabilizing terpenoid molecules against degradation [3] | 40° C. % Stabilization ([1]; 5-month storage at 40° C.) | Sun % Stabilization [1, 4] | 40° C. % Stabilization ([2]; 5-month storage at 40° C.) | Sun % Stabilization [2, 4] |
| --- | --- | --- | --- | --- | --- | --- | --- | --- | --- | --- | --- | --- | --- | --- | --- |
| Cc1cc(C(C)(C)C)c(O)c(C(C)(C)C)c1 [BHT Sample, BHT] | 26286287 peak area count | 31.7% | 32465677 peak area count | 15.3% | 38342803 peak area count | 4918953 peak area count | 28.2% | 4678449 peak area count | 31.4% | 6853529 peak area count |  | 35% | 48% | 29% | 16.5% |
